{
  "source": "patent US20150164064A1",
  "about": "“METHODS, COMPOSITIONS AND DEVICES FOR INDUCING STASIS IN CELLS, TISSUES, ORGANS, AND ORGANISMS” (Fred Hutchinson Cancer Research Center, priority 2003, published 2015)",
  "key": {"[1]": {"test_system": "wild-type C. elegans embryos (Bristol N2)", "assay": "Viability and suspended animation of nematodes in carbon monoxide based atmospheres (wild-type)", "type": "in vivo", "description": "To achieve specific atmospheric conditions the following apparatus was used: a glass syringe barrel having a tip with a locking device such as a LUER-LOK with the large opening of the barrel sealed with a custom-machined steel and rubber fitting to make an airtight seal was locked to via locking device to the inlet port of an environmental chamber having an inlet and an outlet port each fitted with a locking devices such as a LUER-LOK fitting. A defined gas was humidified and provided to the environmental chamber by first venting the gas from a compressed tank (Byrne Specialty Gas, Seattle, Wash.) through a gas washing bottle (500 ml Kimex) filled with double distilled water. The gas washing bottle was connected to the environmental chamber past a gas-flow meter. A gas flow meter was used to provide a regulated 70 cc/min flow through the environmental chamber throughout the 24 hr incubation.\nTo test whether induced, reversible stasis could be achieved in C. elegans nematodes, 2-cell C. elegans embryos, L3 larvae or adult nematodes were collected and exposed to either an environment of effectively 100% CO, an environment of 100% N2, an environment comprising 500 ppm oxygen balanced with carbon monoxide, or to environments comprising 100, 500 or 1000 ppm oxygen balanced with nitrogen at room temperature. Nematodes were visualized using differential interference contrast microscopy (also known as Nomarski optics), images were collected and analyzed using NIH image and Adobe Photoshop 5.5. Embryos are approximately 50 μm in length.\nEnviromental chambers and apparati. Oxygen deprivation experiments were carried out using a custom atmospheric chamber designed by W. Van Voorhies (Van Voorhies et al., 2000). The chamber is a 30 mL glass syringe (Fisher #14-825-10B) fitted with a custom steel stopper that is lined with two viton o-rings to ensure a tight seal. The stopper is bored through and has a steel lure lock on the exterior face so that a hose carrying compressed gas can be attached. A defined gas mixture is delivered to the chamber at a constant pressure and flow rate from compressed tanks by passing first through a rotometer (Aalborg, flow-tube number 032-41ST) or mass flow controller (Sierra Instruments #810) to monitor flow rate and then through a 500 ml gas washing bottle (Fisher #K28220-5001) containing 250 ml water to hydrate the gas. ¼″ OD nylon (Cole-Parmer #P-06489-06) or FEP (Cole-Parmer #A-06450-05) tubing was used and connections between tubing and the regulators and between the tubing and the rotometers were made with brass John-Guest-type fittings (Byrne Gas). All other connections were made with either microflow quick-connect fittings (Cole-Parmer #A-06363-57, #A-06363-52) or standard lure fittings (Cole-Parmer #A-06359-37, #A-06359-17).\nViability of nematodes in hypoxia. […] Log-phase, adult C. elegans were picked into a drop of sterile water containing 100 μg/ml ampicillin, 15 μg/ml tetracycline and 200 μg/ml streptomycin on a glass plate. Adults were chopped with a razor blade and 2-cell embryos were picked using a mouth pipet. 30-60 2-cell embryos were transferred to a small glass boat (custom made to fit atmospheric chambers, Avalon Glass Works, Seattle Wash.) filled with 3 ml of 1% agarose in M9. […] Embryos were scored for hatching 24 hours after exposure and hatched L1's were transferred to the surface of the NGM plate and followed to adulthood. […]"}, "hif-1(ia04) embryos": {"test_system": "hif-1(ia04) embryos", "assay": "Viability and suspended animation of nematodes in carbon monoxide based atmospheres (hif-1 mutant)", "type": "in vivo, C. elegans", "description": "Viability of nematodes in carbon monoxide based atmospheres. 30-60 embryos were harvested from continuously maintained Bristol N2 and […] strains as described above. Environmental chambers were continuously perfused at room temperature with pure CO (grade CP) or 500 ppm O2/CO at 70 cc/min for 24 hrs. To achieve 2500 ppm O2/CO or 2500 ppm O2/N2, 5000 ppm O2/N2 was mixed at a 1:1 ratio with either pure CO or pure N2 using two mass flow controllers (Sierra Instruments 810) to precisely monitor flow. Each gas was delivered into a 3-way valve (Cole-Parmer #A-30600-23) at 50 cc/min and the resulting mixture was then passed through a gas washing bottle and into an environmental chamber throughout the 24 hour exposure. All gases were supplied by Byrne Gas (Seattle, Wash.). The 500 ppm O2/CO mixture was certified to ±2% of the oxygen content and contained […] to ensure a consistent O2/CO ratio throughout the use of the tank.\nCell biological analysis. To determine the extent of developmental progression in nitrogen-based atmospheres (Table 2), 2-cell embryos were exposed to various degrees of hypoxia as described above and were either immediately photographed, or photographed following a […] recovery period in a humid chamber. […]"}, "human keratinocytes": {"test_system": "human keratinocytes", "assay": "Preservation of human skin in carbon monoxide; keratinocyte growth and colony formation", "type": "cell-based", "experimental": "Three human foreskins were obtained for this purpose. The foreskin tissue was preserved in keratinocyte growth medium (KGM) containing insulin, EGF (0.1 ng/ml), hydrocortisone ([…]) and bovine pituitary extract (approx. 50 micrograms/ml of protein). Foreskins were rinsed in PBS, and excess fatty tissue was removed. Each foreskin sample was divided into 2 equal pieces. Each piece was placed into a separate container containing a solution of PBS with 24 mg/ml of Dispase II (from Bacillus Polmyxa EC 3.4.24.4:Roche Diagnostics Corp., Indianapolis, Ind.). One container (containing a foreskin piece in PBS with Dispase II) was kept in a humid chamber in a fume hood. The other container (with the other half of the foreskin in PBS with Dispase II) was placed in the same fume hood in an environmental chamber perfused with humidified 100% CO. Both samples were maintained at room temperature for 24 hrs. Methods used to establish defined atmospheric conditions were identical to those used in Example 1. […]\nCells were inspected visually using an inverted phase contrast microscope. […] Quantitation of the number of viable keratinocytes as judged by colony formation was quantified for two of the three foreskins."}, "humans [2]": {"test_system": "humans", "details": "cited from earlier work"}, "mice [3]": {"test_system": "mice", "assay": "Core body temperature, heart rate and movement of mice by telemetry in regulated H2S atmosphere", "type": "in vivo, mouse", "details": "80 ppm", "description": "Implantation of telemetry devices.\nExposure of Mice to Regulated Atmosphere.\nRegulation of Ambient Temperature. […] Mice were exposed to regulated atmosphere as described above."}, "mice [4]": {"test_system": "mice"}, "humans [5]": {"test_system": "humans", "details": "500 ppm; cited from earlier work"}, "rats": {"test_system": "rats", "details": "cited from earlier work"}, "mice [6]": {"test_system": "mice", "details": "80 ppm, cited from earlier work"}},
  "note": "“Also recorded” adds a separate entry of the source. Like-named read-outs stand apart in the source and are kept apart here.",
  "data": [
    {"smiles": "[C-]#[O+]", "note": "[CO, carbon monoxide]", "values": [
      {"measurement": "suspended animation", "setting": "[1]; 0.25 kPa O2 balanced with carbon monoxide, wild-type", "value": "entered into suspended animation"},
      {"measurement": "suspended animation", "setting": "[1]; 100% CO (101 kPa CO), 24 hrs", "value": "entered into suspended animation"},
      {"measurement": "suspended animation", "setting": "[1]; 100% CO (101 kPa CO), 24 hrs, listed as carbon monoxide", "value": "induced reversible suspended animation"},
      {"measurement": "lethality to nematodes", "setting": "[1]; 100% CO, 24 hr, room temperature", "value": "not lethal"},
      {"measurement": "suspended animation and survival", "setting": "[1]; 500 ppm oxygen (0.05 kPa O2) balanced with carbon monoxide, 24 hrs", "value": "entered into suspended animation and survived; also recorded: arrested embryogenesis"},
      {"measurement": "viability (survival) to adulthood", "setting": "hif-1(ia04) embryos; 0.25 kPa O2/CO, 24 hrs, hif-1(ia04) embryos", "value": 84.0, "unit": "%"},
      {"measurement": "suspended animation", "setting": "hif-1(ia04) embryos; 0.25 kPa O2 balanced with carbon monoxide, hif-1(ia04)", "value": "entered into suspended animation"},
      {"measurement": "keratinocyte growth (visual inspection)", "setting": "human keratinocytes; all three populations, 100% CO 24 hr", "value": "significant growth"},
      {"measurement": "cell survival in CO relative to room air", "setting": "human keratinocytes; human skin, 100% CO, after 24 hrs", "value": 100, "unit": "fold"},
      {"measurement": "symptoms in humans", "setting": "humans [2]; 50 ppm", "value": "no symptoms"},
      {"measurement": "symptoms in humans", "setting": "humans [2]; 200 ppm, within two-three hours", "value": "slight headache"},
      {"measurement": "symptoms in humans", "setting": "humans [2]; 400 ppm, within one to two hours", "value": "frontal headache"},
      {"measurement": "symptoms in humans", "setting": "humans [2]; 800 ppm, within 45 minutes", "value": "dizziness, nausea, and/or convulsions"},
      {"measurement": "symptoms in humans", "setting": "humans [2]; 800 ppm, within two hours", "value": "insensible"},
      {"measurement": "lethality", "setting": "humans [2]; around 1000 ppm, exposure more than around 1-2 minutes", "value": "can expire"}
    ]},
    {"smiles": "S", "note": "[H2S, hydrogen sulfide]", "values": [
      {"measurement": "core body temperature repeatedly reached on demand", "setting": "mice [3]", "value": "13-15 °C"},
      {"measurement": "behavior compared to untreated animals", "setting": "mice [4]; after 80 ppm, cabinet 10.5°C", "value": "no apparent change in the behavior"},
      {"measurement": "behavior tests (SHIRPA protocol) before and after exposure", "setting": "mice [4]; after gas exposure", "value": "no detectable behavioral differences"},
      {"measurement": "behavior of the animals", "setting": "mice [4]; four mice maintained for 4 weeks after 80 ppm, 6 hr, 15°C", "value": "no apparent change in the behavior"},
      {"measurement": "acute effect of extreme levels", "setting": "humans [5]", "value": "sudden collapse and unconsciousness"},
      {"measurement": "perinatal exposure effect on cerebellar Purkinje cells", "setting": "rats; 20 or 50 ppm, 7 hours per day, gestation through post-natal day 21", "value": "longer dendritic branches with reduced aborization of cerebellar Purkinje cells"},
      {"measurement": "perinatal study, neuropathology and behavior of rat pups", "setting": "rats; 80 ppm", "value": "no neuropathological effects or altered motor activity, passive avoidance, or acoustic startle response"},
      {"measurement": "behavioral toxicity, avoidance responses", "setting": "rats; moderate levels, immediately after end of exposure", "value": "inhibits discriminated avoidance responses"},
      {"measurement": "behavioral toxicity, maze learning", "setting": "rats; moderate levels", "value": "interferes with the ability of rats to learn a baited radial arm maze task"},
      {"measurement": "toxicology, gross and histopathological examination", "setting": "rats; rats, 80 ppm, 6 hrs per day, 5 days per week, 90 days", "value": "no observed adverse effect"},
      {"measurement": "tolerability", "setting": "mice [6]; exposures up to ten weeks", "value": "innocuous"},
      {"measurement": "toxicology, gross and histopathological examination", "setting": "mice [6]; mice, 6 hrs per day, 5 days per week, 90 days", "value": "no observed adverse effect"}
    ]}
  ]
}
